Consider two molecules from PMC7001764 (Cell reports, 2020).

For series [1], the target named is T1, CAPN5-PC (calpain-5 protease core) (Homo sapiens, UniProt O15484).
T1 sequence (O15484 1-343): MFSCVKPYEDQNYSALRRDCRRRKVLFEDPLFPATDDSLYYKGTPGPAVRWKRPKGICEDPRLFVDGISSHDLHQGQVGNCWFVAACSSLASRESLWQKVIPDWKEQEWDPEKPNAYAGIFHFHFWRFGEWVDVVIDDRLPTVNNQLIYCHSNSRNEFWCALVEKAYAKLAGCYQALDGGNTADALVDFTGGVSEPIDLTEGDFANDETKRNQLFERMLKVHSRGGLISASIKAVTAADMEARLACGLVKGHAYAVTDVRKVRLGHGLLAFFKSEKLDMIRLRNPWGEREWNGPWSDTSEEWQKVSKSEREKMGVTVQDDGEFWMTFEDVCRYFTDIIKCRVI
Nature of the series: inhibition of Ac-LLY-AFC hydrolysis by purified CAPN5-PC. Format: biochemical.

Substrate in series [2]: CC(=O)N[C@@H](CC(C)C)C(=O)N[C@@H](CC(C)C)C(=O)N[C@@H](Cc1ccc(O)cc1)C(=O)Nc1ccc2c(C(F)(F)F)cc(=O)oc2c1
In words: purified protein. To be noted: Ca2+ ([…]).

The IC50 is the point on the concentration scale where inhibition reaches its midpoint. The molecule `CC(C)C[C@H](NC(=O)[C@H]1O[C@@H]1C(=O)O)C(=O)NCCCCN=C(N)N` [E-64] yielded an IC50 in series [1] of 1200 ± 300 nM.

B1: CAPN5-PC (calpain-5 protease core) (Homo sapiens) (protein)
chain: T1 sequence (O15484 1-343)
Consider B1, for which the Km in series [2] was 153 × 10^2 ± 38 μM.
